For ten compounds, IC50 and Ki results are on record in ChEMBL document CHEMBL1909046, “DrugMatrix in vitro pharmacology data”.

Data set [1] concerns the target Beta-1 adrenergic receptor (Homo sapiens, UniProt P08588). Kind of data set: DRUGMATRIX: Adrenergic beta1 radioligand binding (ligand: [125I] Cyanopindolol). The data set is classed as cell membranes, CHO-K1, Membrane. Particulars: cho-k1; Not Active = under 50% inhibition at 10 µM.
In data set [2] the target is 5-hydroxytryptamine receptor 6 (Homo sapiens, UniProt P50406). The data set is classed as cell membranes, HeLa, Membrane. Note: in other assays of this panel Not Active means under 50% inhibition at 10 µM.
Chain of 5-hydroxytryptamine receptor 6 (P50406 whole entry): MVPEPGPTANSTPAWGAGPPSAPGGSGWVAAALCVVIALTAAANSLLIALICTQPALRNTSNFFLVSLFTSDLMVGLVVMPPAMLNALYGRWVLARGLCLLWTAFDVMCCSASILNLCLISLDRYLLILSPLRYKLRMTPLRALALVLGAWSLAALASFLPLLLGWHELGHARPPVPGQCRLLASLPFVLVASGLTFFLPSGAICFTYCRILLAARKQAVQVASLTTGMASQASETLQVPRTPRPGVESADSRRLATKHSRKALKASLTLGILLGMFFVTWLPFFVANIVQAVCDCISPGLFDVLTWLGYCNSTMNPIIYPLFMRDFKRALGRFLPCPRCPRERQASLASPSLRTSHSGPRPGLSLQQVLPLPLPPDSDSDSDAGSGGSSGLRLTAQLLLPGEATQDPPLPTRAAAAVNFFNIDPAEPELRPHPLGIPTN
A further data set has as its target Substance-P receptor (Homo sapiens, UniProt P25103). The data set is classed as cell membranes, Membrane. Particulars: cho. Note: in other assays of this panel Not Active means under 50% inhibition at 10 µM.
For data set [3], the target named is T1, C-X-C chemokine receptor type 2 (Homo sapiens, UniProt P25025). Note: in other assays of this panel Not Active means under 50% inhibition at 10 µM.
T1 sequence (P25025 whole entry): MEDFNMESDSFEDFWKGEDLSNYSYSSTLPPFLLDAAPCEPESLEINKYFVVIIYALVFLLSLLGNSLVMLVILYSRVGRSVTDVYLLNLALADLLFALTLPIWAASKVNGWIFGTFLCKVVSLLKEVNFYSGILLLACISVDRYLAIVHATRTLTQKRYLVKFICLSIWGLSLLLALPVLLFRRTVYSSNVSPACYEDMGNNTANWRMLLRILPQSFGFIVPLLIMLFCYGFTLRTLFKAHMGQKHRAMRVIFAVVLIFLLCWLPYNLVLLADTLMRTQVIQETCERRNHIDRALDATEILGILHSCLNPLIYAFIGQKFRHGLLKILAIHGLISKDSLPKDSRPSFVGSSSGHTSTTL
The data set is classed as cell membranes, Membrane. Particulars: cho-k1.

A short description of data set [4]: DRUGMATRIX: GABAA, Chloride Channel, TBOB radioligand binding (ligand: [3H] TBOB). Type of data set: cell membranes, Rattus norvegicus, Wistar, Cerebral cortex, Membrane. Particulars: Not Active = under 50% inhibition at 10 µM.
A further data set deals with Insulin receptor (Rattus norvegicus, UniProt P15127). The data set is classed as cell membranes, Wistar, Liver, Membrane.
Chain of Insulin receptor (P15127 27-759 limits assumed): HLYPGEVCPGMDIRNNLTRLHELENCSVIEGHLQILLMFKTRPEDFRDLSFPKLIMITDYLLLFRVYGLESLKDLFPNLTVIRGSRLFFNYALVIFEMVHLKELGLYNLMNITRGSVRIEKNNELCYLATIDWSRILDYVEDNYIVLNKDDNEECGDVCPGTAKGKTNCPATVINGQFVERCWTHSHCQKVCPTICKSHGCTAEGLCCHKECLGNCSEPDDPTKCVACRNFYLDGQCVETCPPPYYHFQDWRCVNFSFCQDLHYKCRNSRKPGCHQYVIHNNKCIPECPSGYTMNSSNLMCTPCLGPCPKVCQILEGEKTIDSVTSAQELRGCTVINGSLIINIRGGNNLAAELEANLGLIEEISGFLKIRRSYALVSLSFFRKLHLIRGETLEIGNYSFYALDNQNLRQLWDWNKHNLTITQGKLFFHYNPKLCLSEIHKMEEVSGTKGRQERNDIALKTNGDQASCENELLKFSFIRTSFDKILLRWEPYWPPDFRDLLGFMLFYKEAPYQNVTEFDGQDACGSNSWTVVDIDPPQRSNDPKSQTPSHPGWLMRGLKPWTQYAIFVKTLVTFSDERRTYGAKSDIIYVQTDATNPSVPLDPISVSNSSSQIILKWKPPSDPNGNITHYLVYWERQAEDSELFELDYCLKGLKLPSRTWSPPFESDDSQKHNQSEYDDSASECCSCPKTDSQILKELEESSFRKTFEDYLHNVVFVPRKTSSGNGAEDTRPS
Chain of Insulin receptor (P15127 764-1383 limits assumed): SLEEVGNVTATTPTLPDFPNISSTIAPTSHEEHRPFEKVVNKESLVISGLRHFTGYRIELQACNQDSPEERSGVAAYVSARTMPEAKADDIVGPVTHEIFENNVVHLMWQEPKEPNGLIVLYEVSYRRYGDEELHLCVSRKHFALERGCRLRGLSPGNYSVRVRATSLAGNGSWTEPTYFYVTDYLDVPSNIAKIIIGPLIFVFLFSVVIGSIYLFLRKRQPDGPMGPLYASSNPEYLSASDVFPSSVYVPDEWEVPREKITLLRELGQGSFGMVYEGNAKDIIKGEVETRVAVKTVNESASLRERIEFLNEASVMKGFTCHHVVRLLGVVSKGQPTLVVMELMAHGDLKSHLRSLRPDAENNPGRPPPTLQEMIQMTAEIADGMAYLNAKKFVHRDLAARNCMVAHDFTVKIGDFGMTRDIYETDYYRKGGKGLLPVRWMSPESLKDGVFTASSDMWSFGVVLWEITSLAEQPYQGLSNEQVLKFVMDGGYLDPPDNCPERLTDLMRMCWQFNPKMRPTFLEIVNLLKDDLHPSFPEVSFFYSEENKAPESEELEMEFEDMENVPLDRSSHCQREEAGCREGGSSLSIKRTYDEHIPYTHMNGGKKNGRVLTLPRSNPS
Data set [5] concerns the target T2, Neuropeptide Y receptor type 1 (Homo sapiens, UniProt P25929). Note: in other assays of this panel Not Active means under 50% inhibition at 10 µM.
T2 sequence (P25929 whole entry): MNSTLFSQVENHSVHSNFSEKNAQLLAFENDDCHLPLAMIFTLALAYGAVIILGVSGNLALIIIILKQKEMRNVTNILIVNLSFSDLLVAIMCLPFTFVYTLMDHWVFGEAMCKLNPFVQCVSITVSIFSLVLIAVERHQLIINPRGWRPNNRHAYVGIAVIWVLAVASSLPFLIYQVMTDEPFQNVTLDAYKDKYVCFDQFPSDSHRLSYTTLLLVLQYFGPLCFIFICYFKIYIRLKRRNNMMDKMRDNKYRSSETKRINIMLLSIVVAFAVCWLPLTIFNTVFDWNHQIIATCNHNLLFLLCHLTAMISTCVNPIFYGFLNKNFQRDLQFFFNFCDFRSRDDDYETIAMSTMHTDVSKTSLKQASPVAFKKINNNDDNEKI
Type of data set: cell membranes, Membrane. As to conditions: sk-n-mc.

A further data set deals with Mu-type opioid receptor (Homo sapiens, UniProt P35372). The data set can be described thus: DRUGMATRIX: Opiate mu (OP3, MOP) radioligand binding (ligand: [3H] Diprenorphine). As to conditions: cho-k1; Not Active = under 50% inhibition at 10 µM. Type of data set: cell membranes, CHO-K1, Membrane.
Chain of Mu-type opioid receptor (P35372 whole entry): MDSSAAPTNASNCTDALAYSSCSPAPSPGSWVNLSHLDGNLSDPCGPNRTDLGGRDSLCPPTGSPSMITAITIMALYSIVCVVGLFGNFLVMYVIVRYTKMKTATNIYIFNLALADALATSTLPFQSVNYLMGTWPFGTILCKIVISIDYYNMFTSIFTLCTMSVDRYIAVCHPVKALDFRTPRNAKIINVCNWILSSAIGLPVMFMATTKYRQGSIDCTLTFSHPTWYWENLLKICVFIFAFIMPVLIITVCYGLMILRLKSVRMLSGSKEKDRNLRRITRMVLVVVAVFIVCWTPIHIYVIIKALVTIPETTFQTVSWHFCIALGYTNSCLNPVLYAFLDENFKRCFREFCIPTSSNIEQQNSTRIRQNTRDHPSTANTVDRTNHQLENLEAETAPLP
The target in data set [6] is Platelet-activating factor receptor (Homo sapiens, UniProt P25105). Type of data set: tissue-based. Note: in other assays of this panel Not Active means under 50% inhibition at 10 µM.
Chain of Platelet-activating factor receptor (P25105 whole entry): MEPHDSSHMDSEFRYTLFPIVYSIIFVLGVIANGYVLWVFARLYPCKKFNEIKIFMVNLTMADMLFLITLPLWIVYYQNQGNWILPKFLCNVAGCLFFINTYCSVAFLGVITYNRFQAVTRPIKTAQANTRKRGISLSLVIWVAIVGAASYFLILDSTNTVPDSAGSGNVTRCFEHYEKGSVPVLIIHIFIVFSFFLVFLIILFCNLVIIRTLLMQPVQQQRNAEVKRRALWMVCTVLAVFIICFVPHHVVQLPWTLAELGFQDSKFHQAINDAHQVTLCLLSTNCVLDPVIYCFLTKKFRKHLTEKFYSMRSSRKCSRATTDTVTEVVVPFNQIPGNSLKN
A short description of data set [7]: DRUGMATRIX: Potassium Channel [KATP] radioligand binding (ligand: [3H] Glyburide). The data set is classed as cell membranes, Membrane. Particulars: hit-t15; Not Active = under 50% inhibition at 10 µM.
In the next data set the target is T3, Cytochrome P450 1A2 (Homo sapiens, UniProt P05177). Note: in other assays of this panel Not Active means under 50% inhibition at 10 µM.
T3 sequence (P05177 whole entry): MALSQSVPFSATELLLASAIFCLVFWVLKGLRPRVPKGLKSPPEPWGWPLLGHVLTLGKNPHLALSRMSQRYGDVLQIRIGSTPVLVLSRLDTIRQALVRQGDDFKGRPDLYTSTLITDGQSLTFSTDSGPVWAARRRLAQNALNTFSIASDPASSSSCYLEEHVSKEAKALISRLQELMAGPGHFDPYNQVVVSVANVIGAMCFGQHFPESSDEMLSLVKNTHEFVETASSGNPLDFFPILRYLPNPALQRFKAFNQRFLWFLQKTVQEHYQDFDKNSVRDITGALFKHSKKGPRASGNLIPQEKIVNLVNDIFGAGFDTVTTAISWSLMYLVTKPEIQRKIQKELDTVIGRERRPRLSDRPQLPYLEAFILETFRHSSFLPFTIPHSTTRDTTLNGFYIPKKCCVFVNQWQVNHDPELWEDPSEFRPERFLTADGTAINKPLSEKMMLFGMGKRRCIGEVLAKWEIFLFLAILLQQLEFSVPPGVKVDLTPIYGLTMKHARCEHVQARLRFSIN
Particulars: bti-tn-5b1-4.

Chain of Beta-1 adrenergic receptor (P08588 whole entry): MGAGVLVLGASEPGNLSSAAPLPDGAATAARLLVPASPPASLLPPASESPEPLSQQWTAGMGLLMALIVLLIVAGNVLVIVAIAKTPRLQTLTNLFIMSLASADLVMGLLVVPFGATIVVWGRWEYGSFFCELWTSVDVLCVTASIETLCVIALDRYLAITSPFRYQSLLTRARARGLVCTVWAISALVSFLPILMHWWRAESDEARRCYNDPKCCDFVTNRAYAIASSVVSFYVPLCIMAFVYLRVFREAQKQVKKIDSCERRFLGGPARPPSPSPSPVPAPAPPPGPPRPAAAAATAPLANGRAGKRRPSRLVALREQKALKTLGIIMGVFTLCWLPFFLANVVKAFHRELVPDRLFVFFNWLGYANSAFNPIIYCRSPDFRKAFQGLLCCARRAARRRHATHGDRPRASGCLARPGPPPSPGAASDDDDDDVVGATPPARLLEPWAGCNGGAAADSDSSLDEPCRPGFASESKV
Chain of Substance-P receptor (P25103 whole entry): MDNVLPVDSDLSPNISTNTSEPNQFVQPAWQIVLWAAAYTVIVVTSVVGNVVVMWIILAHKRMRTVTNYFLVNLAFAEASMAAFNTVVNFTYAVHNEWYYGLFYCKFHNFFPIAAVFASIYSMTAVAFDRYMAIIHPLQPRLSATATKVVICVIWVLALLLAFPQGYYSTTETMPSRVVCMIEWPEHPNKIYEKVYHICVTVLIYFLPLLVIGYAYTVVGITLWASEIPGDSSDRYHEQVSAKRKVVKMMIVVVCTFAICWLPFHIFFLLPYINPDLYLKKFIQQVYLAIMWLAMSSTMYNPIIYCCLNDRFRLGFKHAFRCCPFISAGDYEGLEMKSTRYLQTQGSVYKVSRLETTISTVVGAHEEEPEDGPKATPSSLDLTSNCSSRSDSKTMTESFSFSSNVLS

Take `CC(=O)N[C@@H]1[C@H](Oc2c3cc4cc2Oc2ccc(cc2Cl)[C@@H](O[C@@H]2O[C@@H](CO)[C@@H](O)[C@H](O)[C@@H]2NC(C)=O)[C@@H]2NC(=O)[C@H](NC(=O)[C@@H]4NC(=O)[C@H]4NC(=O)[C@@H](Cc5ccc(c(Cl)c5)O3)NC(=O)[C@H](N)c3ccc(O)c(c3)Oc3cc(O)cc4c3)c3ccc(O)c(c3)-c3c(O[C@H]4O[C@H](CO)[C@@H](O)[C@@H](O)[C@@H]4O)cc(O)cc3[C@@H](C(=O)O)NC2=O)O[C@@H](CO)[C@@H](O)[C@@H]1O`: the IC50 entry (in [1]; in data set [2] (hela); against Substance-P receptor; in [3]; in [4]; at Insulin receptor) was “Not Active” in each case. The IC50 result (in data set [5]; at Mu-type opioid receptor; in data set [6]; in [7]; at Cytochrome P450 1A2) was “Not Active” each time. Besides, the Ki entry (in data set [4]; in data set [7]; at Cytochrome P450 1A2) was “Not Active” throughout.
For `COCCCOc1ccnc(C[S+]([O-])c2nc3ccccc3[nH]2)c1C` (stereo unspecified) [RABEPRAZOLE], the 50% inhibitory concentration (IC50) result (in [1]; in data set [2] (hela); on Substance-P receptor; in [3]; in [4]; at Insulin receptor) was “Not Active” in each case. The half-inhibitory concentration (IC50) entry (in data set [5]; on Mu-type opioid receptor; in data set [6]; in data set [7]; against Cytochrome P450 1A2) was “Not Active” in each case. Besides, the Ki result (in [4]; in data set [7]; at Cytochrome P450 1A2) was “Not Active” in each case.
Regarding `CNC(=C[N+](=O)[O-])NCCSCc1ccc(CN(C)C)o1` [RANITIDINE], the IC50 result (in data set [1]; in [2] (hela); against Substance-P receptor; in data set [3]; in data set [4]; on Insulin receptor) was “Not Active” each time. For the same compound, the IC50 entry (in [5]; at Mu-type opioid receptor; in data set [6]; in data set [7]; at Cytochrome P450 1A2) was “Not Active” each time. The Ki entry (in data set [4]; in data set [7]; at Cytochrome P450 1A2) was “Not Active” in each case.
Consider `CO[C@H]1/C=C/O[C@@]2(C)Oc3c(C)c(O)c4c(c3C2=O)C2=NC3(CCN(CC(C)C)CC3)NC2=C(NC(=O)/C(C)=C\C=C\[C@H](C)[C@H](O)[C@@H](C)[C@@H](O)[C@@H](C)[C@H](OC(C)=O)[C@@H]1C)C4=O` [RIFABUTIN], for which the half-maximal inhibitory concentration (IC50) entry (in [1]; in data set [2] (hela); against Substance-P receptor; in data set [3]; in data set [4]; against Insulin receptor) was “Not Active” each time. The IC50 result (in data set [5]; on Mu-type opioid receptor; in data set [6]; in [7]; against Cytochrome P450 1A2) was “Not Active” each time. In addition, the Ki entry (in [4]; in data set [7]; at Cytochrome P450 1A2) was “Not Active” each time.
As for `CC(C)CC(N(C)C)C1(c2ccc(Cl)cc2)CCC1` (stereo unspecified) [SIBUTRAMINE], the IC50 result (in data set [1]; in data set [2] (hela); at Substance-P receptor; in [3]; in data set [4]; against Insulin receptor) was “Not Active” in each case. The IC50 result (in data set [5]; at Mu-type opioid receptor; in data set [6]; in [7]; against Cytochrome P450 1A2) was “Not Active” in each case. Further, the Ki entry (in data set [4]; in [7]; at Cytochrome P450 1A2) was “Not Active” each time.
Regarding `[H]/N=C(/N)N[C@H]1[C@H](O)[C@@H](O)[C@H](O[C@@H]2O[C@@H](C)[C@](O)(C=O)[C@H]2O[C@@H]2O[C@@H](CO)[C@H](O)[C@@H](O)[C@@H]2NC)[C@@H](N/C(N)=N\[H])[C@@H]1O` [STREPTOMYCIN], the IC50 result (in data set [1]; in data set [2] (hela); on Substance-P receptor; in [3]; in data set [4]; against Insulin receptor) was “Not Active” throughout. Moreover, the IC50 entry (in data set [5]; at Mu-type opioid receptor; in [6]; in data set [7]; on Cytochrome P450 1A2) was “Not Active” each time. The Ki entry (in [4]; in data set [7]; on Cytochrome P450 1A2) was “Not Active” in each case.
Regarding `COc1cc(NS(=O)(=O)c2ccc(N)cc2)nc(OC)n1` [SULFADIMETHOXINE], the IC50 result is “Not Active” in data set [1]; 1340 nM in data set [2] (read-out: IC50); “Not Active” on Substance-P receptor; “Not Active” in data set [3]; “Not Active” in data set [4]; “Not Active” against Insulin receptor. Moreover, the IC50 result (in [5]; at Mu-type opioid receptor; in data set [6]; in data set [7]; at Cytochrome P450 1A2) was “Not Active” in each case. In addition, the Ki was 622 nM in data set [2] (read-out: Ki), “Not Active” in data set [4], “Not Active” in data set [7] and “Not Active” at Cytochrome P450 1A2.
Regarding `Cc1cc(C)nc(NS(=O)(=O)c2ccc(N)cc2)n1` [SULFAMETHAZINE], the IC50 entry (in data set [1]; in data set [2] (hela); at Substance-P receptor; in data set [3]; in data set [4]; against Insulin receptor) was “Not Active” each time. The half-maximal inhibitory concentration (IC50) result (in data set [5]; at Mu-type opioid receptor; in data set [6]; in data set [7]; against Cytochrome P450 1A2) was “Not Active” throughout. In addition, the Ki result (in data set [4]; in [7]; on Cytochrome P450 1A2) was “Not Active” throughout.
As to `C[C@]1(Cn2ccnn2)[C@H](C(=O)O)N2C(=O)C[C@H]2S1(=O)=O` [TAZOBACTAM], the IC50 result (in [1]; in data set [2] (hela); against Substance-P receptor; in [3]; in data set [4]; against Insulin receptor) was “Not Active” in each case. For the same compound, the IC50 result (in data set [5]; at Mu-type opioid receptor; in [6]; in data set [7]; at Cytochrome P450 1A2) was “Not Active” in each case. For the same compound, the Ki result (in [4]; in data set [7]; on Cytochrome P450 1A2) was “Not Active” in each case.
In the case of `CN1C(C(=O)Nc2ccccn2)=C(O)c2sccc2S1(=O)=O` [TENOXICAM], the IC50 entry (in [1]; in [2] (hela); at Substance-P receptor; in [3]; in data set [4]; at Insulin receptor) was “Not Active” throughout. In addition, the IC50 result (in data set [5]; at Mu-type opioid receptor; in data set [6]; in data set [7]; at Cytochrome P450 1A2) was “Not Active” in each case. The Ki entry (in data set [4]; in data set [7]; at Cytochrome P450 1A2) was “Not Active” throughout.

As usually defined, the IC50 is the midpoint of a concentration-inhibition curve. One may read the Ki as the equilibrium dissociation constant of an inhibitor or competing ligand from its target.
